This is an account of results in patent US5962456A, “N-acylpiperazine derivative, anti-ulcer drug, and antibacterial drug” (Shiseido Co., Ltd., priority 1996, dated 1999).

The subject of one experiment is stress ulcer. The experiment is described as follows: WIS: Restraint and Water Immersion Stress-Induced Ulcer Inhibition Test. Type of experiment: in vivo, rat (male Crj:SD or Slc:SD). Particulars: 100 mg/kg oral, rats, 7 hours restraint and water immersion (21° C.). As for the experimental part: WIS: Restraint and Water Immersion Stress-Induced Ulcer Inhibition Test
The degree of inhibition of the stress ulcer formation is tested.
Male Crj:SD or Slc:SD rats (6 to 7-week-old) were fasted overnight, but allowed free access to water. Each group has 5 to 8 of these rats. […] To a control group, the vehicle was administered. 10 minutes later, the rats were placed in a stress cage and immersed to the level of xipfoid process in a water bath (21° C.) for 7 hours. At the end of the stress, the rats were sacrificed by inhalation of ether or carbon dioxide. Then, the stomach of each was removed, inflated by injecting 10 ml of 5% formalin neutral buffer solution, and immersed in 1% formalin neutral buffer solution for 30 minutes or more to be fixed. The stomach was incised along the greater curvature and then the length of each erosion in the glandular portion was determined under dissecting microscope. The sum of the length of erosions per stomach was defined as ulcer index (UI).
The effect obtained when 100 mg/kg of the sample compound had been administered was expressed as ulcer formation inhibitory rate (%) as follows:
ulcer formation inhibitory rate (%)=(1-(UI in sample group/UI in control group))×100

The next experiment deals with Helicobacter pyroli. The experiment is described as follows: AHP: Antibacterial Activity Test Against Helicobacter pyroli (agar dilution). To be noted: Helicobacter, NCTC11637, 168 h; HP NCTC 11637, agar dilution, 7 days; read-out: AHP minimum inhibitory concentration (MIC). Type of experiment: cell-based, HP NCTC 11637. How it is done: AHP: Antibacterial Activity Test Against Helicobacter pyroli i) Meaning The minimum inhibitory concentration (MIC) against Helicobacter pyroli (microaerophilic gram-negative bacterium which is supposed to deeply involve in pathogenesis, relapse, and recrudescence of ulcer, referred to as "HP" in the following) is measured so as to find out compounds which have antimicrobial activity against Helicobacter pyroli. ii) Method MICs were determined by the agar dilution method. The stock culture (-80° C.) of HP NCTC 11637 was thawed and cultured on tripticase soy agar supplemented with 5% sheep blood at 37° C. in an atmosphere of 5% O2, 10% CO2, and 85% N2. Grown colonies were transferred to the same plate and precultured for 3 days under the same condition. […] 10 μl of the bacterial suspension for inoculation (about 10^3 cfu) was inoculated on this plate and cultured for 7 days under the same condition as that of preculture. […] As the result of the comparison of these plates, when the number of the colony on the plate containing the sample compound was less than 90% with respect to that on the control plate, it was represented by "+". Contrary to this, when there was 90% or more, it was represented by "-".
(In agar dilution, organisms are placed on agar that contains the substance at set levels.)

Experiment [1] deals with isolated gastric fundic gland. The experiment in a line: CAP: Acid Secretion Inhibition Test In Vitro ([14C]-aminopyrine uptake). The class given is cell-based, rabbit (male Japanese White). Particulars: Oryctolagus cuniculus; final concentration 10^-5 M; histamine 10^-5 M; rabbit gastric fundic glands; read-out: CAP acid secretion inhibitory rate. How it is done:
CAP: Acid Secretion Inhibition Test In Vitro
The acid secretion inhibitory activity in a cell level is studied. It can also be used for studying the mechanism of the effect. […]
ii-a) Preparation of Isolated Gastric Fundus Gland Suspension
First, an isolated gastric fundic gland sample was prepared. Namely, a male Japanese White rabbit (2.5 to 3 kg) was anesthetized to death with Nembutal™ and then the abdomen was incised. Immediately thereafter, the stomach was removed and, after its pyloric and cardiac antrum were severed, incised along its greater curvature into two sheets. The gastric contents adhering to the mucosal surface was washed out with ice-cooled PBS (-) and then carefully washed therein. The gastric wall was spread on a cork board with its mucosal surface facing up and the feed and mucus thereon were completely removed with sterile gauze. The mucosa was separated therefrom by a spatula and then collected in ice-cooled PBS (-). After being washed twice with PBS (-), the mucosa was minced into 2-3 mm^3 pieces by scissors. These pieces were further washed twice with a nutrient solution. […] Into 70 ml of the nutrient solution containing 1 mg/ml of collagenase, minced mucosal pieces were dispersed and intensely stirred in a conical flask with a stirrer at 37° C. for 40 to 60 minutes. During this period, 100% O2 was sprayed on the nutrient solution surface and the pH was appropriately measured such that it was immediately adjusted to pH 7.4, when the value was therebelow, with a base. The nutrient solution was added to the reaction solution so as to attain the total amount of about 200 ml. After being filtered through a mesh, the suspension was divisionally introduced into 50 ml centrifuge tubes and left for 15 minutes such that gastric fundic gland was deposited. The supernatant was repeatedly removed by an aspirator, dispersed in the nutrient solution, and then left such that the gastric fundic gland was washed three times. At this time, without using a pipette, the suspension was alternately introduced into two centrifuge tubes so as to effect dispersion. The number of cells was counted under microscope and adjusted to 1.6×10^6 cells/ml. […]
ii-b) [^14 C]-aminopyrine Uptake Test
Then, [^14 C]-aminopyrine uptake test was performed. After an Eppendorf tube was weighed, 10 μl (final concentration: 10^-5 M) of histamine dissolved in the above-mentioned nutrient solution, 10 μl (final concentration: 10^-5 M) of the test compound dissolved in DMSO, and 10 μl (final concentration: 0.05 μCi/ml) of [^14 C]-aminopyrine diluted with the nutrient solution were introduced therein and then 970 μl of the isolated gastric fundic gland suspension prepared above was added thereto. […] After being centrifuged for 30 minutes, 200 μl of its supernatant was collected into a mini-vial, while the rest was removed by an aspirator. The gland pellet was completely dried as the tube with its lid being opened was kept for one night in a drying oven at 80° C. and then the lid was closed and the weight was determined at room temperature. Then 100 μl of 1N KOH was added thereto and the tube with its lid being closed was treated at 60° C. for 1 to 2 hours so as to dissolve the pellet. Then, the contents thereof were transferred to a mini-vial. Into the mini-vial containing the supernatant or gland pellet, 4 ml of Atomlite™ was added and then the radioactivity was measured by a liquid scintillation counter. Here, after the radioactivity of the gland pellet was corrected by using a sample in which 20 mM of NaSCN was added so as to cancel the hydrogen ion concentration gradient, the integration ratio of aminopyrine specifically trapped by the gland pellet was calculated. This experiment was performed in duplicate. […]
ii-c) Calculation of the Accumulation Rate of Aminopyrine
Here, its principle will be briefly explained. In the isolated gastric fundic gland, acid is accumulated in a space between its secretory tubule and intraglandular cavity.

`CC(C)=CCC/C(C)=C/COc1ccc(C(=O)N2CCN(CCNC(=O)c3ccc4c(c3)OCO4)CC2)cc1` [Example 1, 1-(4-geranyloxy)benzoyl-4-[2-(piperonyloylamino)ethyl]piperazine]: the “WIS ulcer formation inhibitory rate” value in the experiment with stress ulcer was found to be 81%. Moreover, the MIC in the experiment with Helicobacter pyroli was < 3.13 µg/mL. Besides, the inhibition at 10 µM in experiment [1] amounted to 100%.
